Results reported in the supplement of paper PMC11208160.

experiment: recombinant UMI read abundance after kanamycin selection (control-corrected) (log10(CPM+1)); higher = more efficient recombination; extreme values may be limits of the assay; sequences stand for … in AGTGCAGAGAAAATCGGCCAGTTTTCTCTGCCTGCAGTCCGCATGCCGTGGGACCCCTTGGGTTCTAACCTGTTGCCTAGATTTATGCAGCGGACTGCCTTTCTCCCAAAGTGATAAACCGG…AGGTTGGTTTCACT; site = the 11-nt donor
How it was run: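 Under IPTG (0.07 mM) plus kanamycin, or without selection, Escherichia coli carrying a UMI-tagged donor and donor-binding-loop pair library and a target plasmid for the IS621 bridge recombinase were plated in two replicates. Recombinant UMIs were PCR-amplified across the donor–target junction and sequenced. Counts were converted to CPM, averaged over replicates, scaled by control-derived factors and reported as log10(CPM+1).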
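Note: IS621 bridge recombinase in Escherichia coli cells against a fixed T5 target plasmid.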

Sequence | recombinant UMI read abundance (log10)
TCAACCCCATGGACCGGTTTTCCCGGTAATCCGTATTTGTG (site TCAACCCCTCA) | 0.00442
TCAAGTTCATGGACCGGTTTTCCCGGTAATCCGTATTTGTC (site TCAAGTTCTGA) | 2
TCAATCTCATGGACCGGTTTTCCCGGTAATCCGTATTTGGT (site TCAATCTCTAC) | 1.11
TCAATTGCATGGACCGGTTTTCCCGGTAATCCGTATTTGCG (site TCAATTGCTCG) | 1.52
TCACCGCCATGGACCGGTTTTCCCGGTAATCCGTATTTGGG (site TCACCGCCTCC) | 0.0301
TCACCTTCATGGACCGGTTTTCCCGGTAATCCGTATTTGTT (site TCACCTTCTAA) | 0.00377
TCACGACCATGGACCGGTTTTCCCGGTAATCCGTATTTGCT (site TCACGACCTAG) | 0
TCACGAGCATGGACCGGTTTTCCCGGTAATCCGTATTTGCC (site TCACGAGCTGG) | 0.952
TCACGCGCATGGACCGGTTTTCCCGGTAATCCGTATTTGAA (site TCACGCGCTTT) | 1.05
TCAGAATCATGGACCGGTTTTCCCGGTAATCCGTATTTGCG (site TCAGAATCTCG) | 2.57
TCAGATACATGGACCGGTTTTCCCGGTAATCCGTATTTGCG (site TCAGAAACTCG) | 0
TCAGATACATGGACCGGTTTTCCCGGTAATCCGTATTTGCG (site TCAGACACTCG) | 0.812
TCAGATACATGGACCGGTTTTCCCGGTAATCCGTATTTGCG (site TCAGAGACTCG) | 0.00723
TCAGATACATGGACCGGTTTTCCCGGTAATCCGTATTTGCG (site TCAGATACTCG) | 1.33
TCAGCTACATGGACCGGTTTTCCCGGTAATCCGTATTTGAG (site TCAGCTACTCT) | 0.878
TCAGCTCCATGGACCGGTTTTCCCGGTAATCCGTATTTGGC (site TCAGCTCCTGC) | 0.823
TCAGGCGCATGGACCGGTTTTCCCGGTAATCCGTATTTGGT (site TCAGGCGCTAC) | 0.385
TCAGGTCCATGGACCGGTTTTCCCGGTAATCCGTATTTGAT (site TCAGGTCCTAT) | 1.68
TCAGTGTCATGGACCGGTTTTCCCGGTAATCCGTATTTGCT (site TCAGTGTCTAG) | 2.58

Sequence | recombinant UMI read abundance (log10)
TCATAATCATGGACCGGTTTTCCCGGTAATCCGTATTTGCA (site TCATAATCTTG) | 2.3
TCATAATCATGGACCGGTTTTCCCGGTAATCCGTATTTGCA (site TCATACTCTTG) | 0.606
TCATAATCATGGACCGGTTTTCCCGGTAATCCGTATTTGCA (site TCATAGTCTTG) | 1.06
TCATAATCATGGACCGGTTTTCCCGGTAATCCGTATTTGCA (site TCATATTCTTG) | 0.925
TCATACTCATGGACCGGTTTTCCCGGTAATCCGTATTTGAA (site TCATACTCTTA) | 0
TCATACTCATGGACCGGTTTTCCCGGTAATCCGTATTTGAA (site TCATACTCTTC) | 0.0134
TCATACTCATGGACCGGTTTTCCCGGTAATCCGTATTTGAA (site TCATACTCTTG) | 0
TCATACTCATGGACCGGTTTTCCCGGTAATCCGTATTTGAA (site TCATACTCTTT) | 1.72
TCATATTCATGGACCGGTTTTCCCGGTAATCCGTATTTGCA (site TCATAATCTTG) | 1.5
TCATATTCATGGACCGGTTTTCCCGGTAATCCGTATTTGCA (site TCATACTCTTG) | 1.3
TCATATTCATGGACCGGTTTTCCCGGTAATCCGTATTTGCA (site TCATAGTCTTG) | 0.00995
TCATATTCATGGACCGGTTTTCCCGGTAATCCGTATTTGCA (site TCATATTCTTG) | 0.476
TCATCAACATGGACCGGTTTTCCCGGTAATCCGTATTTGGT (site TCATCAACTAC) | 0.0136
TCATCCTCATGGACCGGTTTTCCCGGTAATCCGTATTTGCA (site TCATACTCTTG) | 0.933
TCATCCTCATGGACCGGTTTTCCCGGTAATCCGTATTTGCA (site TCATCCTCTTG) | 0.741
TCATCCTCATGGACCGGTTTTCCCGGTAATCCGTATTTGCA (site TCATGCTCTTG) | 0.00381
TCATCCTCATGGACCGGTTTTCCCGGTAATCCGTATTTGCA (site TCATTCTCTTG) | 0
TCATCCTCATGGACCGGTTTTCCCGGTAATCCGTATTTGGC (site TCATCCTCTGC) | 0
TCATGCTCATGGACCGGTTTTCCCGGTAATCCGTATTTGCA (site TCATACTCTTG) | 0.466

Sequence | recombinant UMI read abundance (log10)
TCATGCTCATGGACCGGTTTTCCCGGTAATCCGTATTTGCA (site TCATCCTCTTG) | 0
TCATGCTCATGGACCGGTTTTCCCGGTAATCCGTATTTGCA (site TCATGCTCTTG) | 0.764
TCATGCTCATGGACCGGTTTTCCCGGTAATCCGTATTTGCA (site TCATTCTCTTG) | 0
TCCAAATCATGGACCGGTTTTCCCGGTAATCCGTATTTGCC (site TCCAAATCTGG) | 0
TCCAAATCATGGACCGGTTTTCCCGGTAATCCGTATTTGCC (site TCCAACTCTGG) | 0
TCCAAATCATGGACCGGTTTTCCCGGTAATCCGTATTTGCC (site TCCAAGTCTGG) | 0
TCCAAATCATGGACCGGTTTTCCCGGTAATCCGTATTTGCC (site TCCAATTCTGG) | 0
TCCAACGCATGGACCGGTTTTCCCGGTAATCCGTATTTGCG (site TCCAACGCTCG) | 0.0127
TCCAACGCATGGACCGGTTTTCCCGGTAATCCGTATTTGCG (site TCCACCGCTCG) | 0
TCCAACGCATGGACCGGTTTTCCCGGTAATCCGTATTTGCG (site TCCAGCGCTCG) | 0
TCCAACGCATGGACCGGTTTTCCCGGTAATCCGTATTTGCG (site TCCATCGCTCG) | 0.00881
TCCAAGGCATGGACCGGTTTTCCCGGTAATCCGTATTTGTC (site TCCAAGGCTGA) | 0
TCCAATGCATGGACCGGTTTTCCCGGTAATCCGTATTTGCC (site TCCAATACTGG) | 0
TCCAATGCATGGACCGGTTTTCCCGGTAATCCGTATTTGCC (site TCCAATCCTGG) | 0
TCCAATGCATGGACCGGTTTTCCCGGTAATCCGTATTTGCC (site TCCAATGCTGG) | 0
TCCAATGCATGGACCGGTTTTCCCGGTAATCCGTATTTGCC (site TCCAATTCTGG) | 0
TCCAATTCATGGACCGGTTTTCCCGGTAATCCGTATTTGCA (site TCCAATTCTAG) | 0
TCCAATTCATGGACCGGTTTTCCCGGTAATCCGTATTTGCA (site TCCAATTCTCG) | 0
TCCAATTCATGGACCGGTTTTCCCGGTAATCCGTATTTGCA (site TCCAATTCTGG) | 0
